Assay [1] deals with T1, PPARα (Homo sapiens, UniProt Q07869).
T1 construct: purchased Fujikura Kasei Co., Ltd. PPARA-CBP
T1 sequence (Q07869 1-468): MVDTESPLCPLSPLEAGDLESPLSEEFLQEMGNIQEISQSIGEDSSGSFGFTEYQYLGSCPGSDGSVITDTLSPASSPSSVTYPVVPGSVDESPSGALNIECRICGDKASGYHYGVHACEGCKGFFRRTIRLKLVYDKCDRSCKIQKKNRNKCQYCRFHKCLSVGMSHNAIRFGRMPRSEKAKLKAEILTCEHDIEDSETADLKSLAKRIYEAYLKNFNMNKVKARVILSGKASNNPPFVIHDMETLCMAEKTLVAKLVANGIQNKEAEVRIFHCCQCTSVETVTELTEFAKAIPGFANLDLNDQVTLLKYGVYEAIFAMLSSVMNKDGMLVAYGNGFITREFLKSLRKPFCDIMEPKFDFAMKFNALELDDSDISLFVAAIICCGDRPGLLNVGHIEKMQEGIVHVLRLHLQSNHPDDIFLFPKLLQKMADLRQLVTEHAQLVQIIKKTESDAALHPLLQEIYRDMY
Put plainly: Measurement of agonist activity against PPARα (EnBio RCAS for PPARα kit, PPARA-CBP). The format is biochemical. The settings on record: evaluation concentration 10 μM, ratio to maximal response well (GW7647 0.5 μM); for activation at 10 µM: read-out: Binding ratio (%) @ 10 μM. How it is done:
(1) Measurement of Agonist Activity against PPARα
For the measurement of agonist activity against PPARα, the absorbance was measured according to the kit protocol using EnBio RCAS for PPARα kit (PPARA-CBP, Fujikura Kasei Co., Ltd.). A sample was dissolved in dimethylsulfoxide and added to a 96-well plate so as to have an evaluation concentration of 10 μM. GW7647 was added to a maximal response well so as to have a concentration of 0.5 μM. Dimethylsulfoxide was added to background wells. After subtracting the absorbance of the background well from the absorbance of each sample addition well, the ratio of each sample addition well to the maximal response well was calculated to evaluate the agonist activity (Binding ratio, %) against PPARα. Note that the sample addition wells and the background wells were duplicated, and the maximal response well was quadruplicated. As a positive control, 10 μM of a known PPARα agonist; Fenofibric acid (Tokyo Chemical Industry Co., Ltd.) was used.

In assay [2] the test system is NAFLD model rats fed with a methionine/choline-deficient (MCD) diet. Put plainly: Non-alcoholic fatty liver disease (NAFLD) model rats induced by methionine/choline-deficient diet. Type of assay: in vivo, Wistar rats. The settings on record: for Plasma ALT as an indicator of liver damage: versus Vehicle group (FIG. 1A); for Liver TG level as an indicator of fatty liver: versus Vehicle group (FIG. 1B). From the text: (1) Evaluation Using Non-Alcoholic Fatty Liver Disease (NAFLD) Model Rats Induced by Methionine/Choline-Deficient Diet
As a NAFLD model, rats fed with a methionine/choline-deficient (MCD) diet were used to perform experiments. The MCD diet-fed model is widely used as a model for NAFLD/NASH.
Wistar rats (male, 8 weeks old, Charles River Laboratories Japan, Inc.) were fed with an MCD diet (A02082002B, Research Diets, Inc.) for 5 weeks. From the time of feeding the above diet for 1 week, the rats were divided into a Vehicle group, a COMPOUND 2 (50 mg/kg) group, and a Fenofibrate (100 mg/kg) group so that there was no difference in body weight between the groups (n=4 in each of the groups). The Normal group was fed with an MCS diet as a control diet for the MCD diet (A02082003B, Research Diets, Inc.) for the same period. The administration volume was 10 mL/kg, a 1% methylcellulose solution was repeatedly orally administered to the Vehicle group and the Normal group, and a COMPOUND 2 solution and a Fenofibrate solution were repeatedly orally administered to the COMPOUND 2 group and the Fenofibrate group, respectively, once a day for 4 weeks.
The day after the end of the final administration, blood was collected from the posterior vena cava under non-fasting conditions and isoflurane inhalation anesthesia, and plasma was collected. Further, the liver was removed and a part thereof was cryopreserved. Plasma ALT was measured by the JSCC standardized method. Triglyceride (TG) in the liver was extracted from the liver with a chloroform/methanol mixed solution (2:1, v/v), evaporated to dryness, and dissolved in 2-propanol, and then the amount was measured using Triglyceride E Test Wako. The results were each expressed as a mean value±standard deviation. Significant difference was tested between the Normal group and the Vehicle group using the Welch's t test (unpaired) (#: p<0.05 and ###: p<0.001), and significant difference was tested among the Vehicle group and the test substance administration groups using the Dunnett's test (*: p<0.05, **: p<0.01, and ***: p<0.001).

Assay [3] concerns ZDF rats with low urinary pH. Put plainly: Low urinary pH improving effect in diabetic model Zucker Diabetic Fatty (ZDF) rats. Type of assay: in vivo, ZDF (Lepr^fa/Lepr^fa) rats. To be noted: 24 h urine, versus Vehicle group (FIG. 2). As to the method: (1) Evaluation Using Diabetic Models, Zucker Diabetic Fatty (ZDF) Rats
In this example, the low urinary pH improving effect of COMPOUND 2 was evaluated using diabetic model animals; ZDF rats with low urinary pH. Verinurad; a known URAT1 inhibitor was evaluated as a comparative control compound (the PPARα activating effect of Verinurad was evaluated by the method described in Test Example 1, and as a result, the binding ratio at an evaluation concentration of 10 μM was 3.80%, and no effect was confirmed).
ZDF (Lepr^fa/Lepr^fa) rats (male, 7 weeks old at the start of administration, Charles River Laboratories Japan, Inc.) were divided into a Vehicle group, a COMPOUND 2 (25 mg/kg) group, a COMPOUND 2 (50 mg/kg) group, and a Verinurad (50 mg/kg) group so that there was no difference in body weight between the groups (n=5 in each of the groups). As a Lean group, ZDF (Lean) rats, i.e., control animals of ZDF (Lepr^fa/Lepr^fa) rats, were used (n=5). The administration volume was 10 mL/kg, a 1% methylcellulose solution was repeatedly orally administered to the Vehicle group and the Lean group, and a COMPOUND 2 solutions and a Verinurad solution were repeatedly orally administered to the COMPOUND 2 groups and the Verinurad group, respectively, once a day for 15 days.
During the administration period, the pH of a urine sample obtained by urine collection was measured using a compact pH meter (B-712, Horiba, Ltd.). Urine collection was performed 6 days before the start of administration (pre), on the 1st day, 7th day and 14th day of administration, and urine was collected in a metabolic cage for 24 hours. The results were each expressed as a mean value±standard deviation. At each time point, significant difference was tested between the Lean group and the Vehicle group using the Student's t test (unpaired) (###: p<0.001). After one-way analysis of variance, significant difference was tested among the Vehicle group and the test substance administration groups using the Dunnett's test (*: p<0.05, **: p<0.01, and ***: p<0.001).

Where [4] appears, read: 50 mg/kg oral once a day for 4 weeks.
Setting [5] is: 50 mg/kg oral once a day for 15 days.
[6] abbreviates: 100 mg/kg oral once a day for 4 weeks.

With `CC(C)(Sc1ccc2ncsc2c1-c1ccc(C#N)cc1)C(=O)O` [COMPOUND 1, 2-[[7-(4-cyanophenyl)benzo[d]thiazol-6-yl]thio]-2-methylpropanoic acid], the activation at 10 µM in assay [1] is 49.2%.
With `CC(C)(Sc1ccc2cnsc2c1-c1ccc(C#N)cc1)C(=O)O` [COMPOUND 2, 2-[[7-(4-cyanophenyl)benzo[d]isothiazol-6-yl]thio]-2-methylpropanoic acid], the activation at 10 µM in assay [1] is 69.8%. In assay [2] (setting [4]), the “Plasma ALT as an indicator of liver damage” value was “significantly lower values than the Vehicle group” and the “Liver TG level as an indicator of fatty liver” value is recorded as “significantly lower”. Besides, the “Urine pH” value in assay [3] (25 mg/kg oral once a day for 15 days) is “significantly increased from the 7th day of administration”. The “Urine pH” value in assay [3] (setting [5]) is recorded as “significantly increased from the 1st day of administration”.
For `CC(C)(Oc1cc2ncsc2cc1-c1ccc(C#N)cc1)C(=O)O` [COMPOUND 3, 2-[[6-(4-cyanophenyl)benzo[d]thiazol-5-yl]oxy]-2-methylpropanoic acid], the activation at 10 µM in assay [1] amounted to 16%.
Still for that read-out and setting: as for `CC(C)(Sc1ccc2ccccc2c1-c1ccc(C#N)cc1)C(=O)O` [COMPOUND 4, 2-[[1-(4-cyanophenyl)naphthalen-2-yl]thio]-2-methylpropanoic acid], the figure is 52.6%; as for `Cc1nsc2c(-c3ccc(C#N)cc3)c(SC(C)(C)C(=O)O)ccc12` [COMPOUND 5, 2-[[7-(4-cyanophenyl)-3-methylbenzo[d]isothiazol-6-yl]thio]-2-methyl propanoic acid], 41.8%.
On the same count and under the same terms, as for `CC(C)(Sc1ccc2nc(C(F)(F)F)sc2c1-c1ccc(C#N)cc1)C(=O)O` [COMPOUND 6, 2-[[7-(4-cyanophenyl)-2-(trifluoromethyl)benzo[d]thiazol-6-yl]thio]-2-methylpropanoic acid], the figure is 24.7%.
On to `Cc1nc2ccc(SC(C)(C)C(=O)O)c(-c3ccc(C#N)cc3)c2s1` [COMPOUND 7, 2-[[7-(4-cyanophenyl)-2-methylbenzo[d]thiazol-6-yl]thio]-2-methylpropanoic acid], for which the activation at 10 µM in assay [1] stood at 47%.
Consider `N#Cc1ccc(-c2c(SC3(C(=O)O)CCC3)ccc3cnsc23)cc1` [COMPOUND 8, 1-[[7-(4-cyanophenyl)benzo[d]isothiazol-6-yl]thio]cyclobutan-1-carboxylic acid], for which the activation at 10 µM in assay [1] is 29.9%.
The same measure, in the same setting: as for `CC(C)(Sc1ccc2cnsc2c1-c1ccc(C(F)(F)F)cc1)C(=O)O` [COMPOUND 9, 2-methyl-2-[[7-[4-(tri-fluoromethyl)phenyl]benzo[d]iso-thiazol-6-yl]thio]propanoic acid], the figure is 87%; as for `CC(C)(Sc1cc(F)c2cnsc2c1-c1ccc(C#N)cc1)C(=O)O` [COMPOUND 10, 2-[[7-(4-cyanophenyl)-4-fluorobenzo[d]isothiazol-6-yl]thio]-2-methylpropanoic acid], 71.3%.
Still for that read-out and setting: as for `N#Cc1ccc(-c2c(SC3(C(=O)O)CCCC3)ccc3cnsc23)cc1` [COMPOUND 11, 1-[[7-(4-cyanophenyl)benzo[d]isothiazol-6-yl]thio]cyclopentan-1-carboxylic acid], the figure is 21.7%; as for `CC(C)(Sc1ccc2cnsc2c1-c1ccc(Cl)cc1)C(=O)O` [COMPOUND 12, 2-[[7-(4-chlorophenyl)benzo[d]isothiazol-6-yl]thio]-2-methylpropanoic acid], 92.6%.
On the same count and under the same terms, as for `Cc1cc(-c2c(SC(C)(C)C(=O)O)ccc3cnsc23)ccc1C#N` [COMPOUND 13, 2-[[7-(4-cyano-3-methylphenyl)benzo[d]isothiazol-6-yl]thio]-2-methylpropanoic acid], the figure is 20.8%.
Regarding `Cc1nsc2c(-c3ccc(C#N)cc3)c(SC3(C(=O)O)CCC3)ccc12` [COMPOUND 14, 1-[[7-(4-cyanophenyl)-3-methylbenzo[d]isothiazol-6-yl]thio]cyclobutan-1-carboxylic acid], the activation at 10 µM in assay [1] turned out to be 26.5%.
For the molecule `CCC(CC)(Sc1ccc2cnsc2c1-c1ccc(C#N)cc1)C(=O)O` [COMPOUND 15, 2-[[7-(4-cyanophenyl)benzo[d]isothiazol-6-yl]thio]-2-ethylbutanoic acid], in assay [1], the activation at 10 µM is 59%.
On the same count and under the same terms, as for `CC(C)(C)C(Sc1ccc2cnsc2c1-c1ccc(C#N)cc1)C(=O)O` (stereo not shown) [COMPOUND 16, 2-[[7-(4-cyanophenyl)benzo[d]isothiazol-6-yl]thio]-3,3-dimethylbutanoic acid], the figure is 11.8%.
`CC(C)(Oc1ccc(C(=O)c2ccc(Cl)cc2)cc1)C(=O)O` [Fenofibric acid, 2-[4-(4-chlorobenzoyl)phenoxy]-2-methylpropionic acid, reference compound]: the “Binding ratio (%) @ 10 μM” value in assay [1] worked out at 50.46%.
Consider `CC(C)(Sc1ccncc1-c1ccc(C#N)c2ccccc12)C(=O)O` [Verinurad, reference compound], for which the activation at 10 µM in assay [1] was found to be 3.8%. In addition, the “Urine pH” value in assay [3] (setting [5]) was “no low urinary pH improving effect was observed throughout the administration period”.
With fenofibrate [reference compound], in assay [2] (setting [6]), the “Plasma ALT as an indicator of liver damage” value is given as “significantly lower values than the Vehicle group” and the “Liver TG level as an indicator of fatty liver” value is on record as “significantly lower”.

Values taken from patent publication US11278528B2, “Activator of peroxisome proliferator-activated receptor” (Nippon Chemiphar Co., Ltd., priority 2017, dated 2022).
